Test results as given in patent US20150079168A1 (Keryx Biopharmaceuticals, Inc., priority 2012, published 2015).
Like-named read-outs stand apart in the source and are kept apart here.

How the values were obtained:
BET active surface area = type: physicochemical
Text: BET theory explains the physical adsorption of gas molecules onto a solid surface. The theory serves as the basis for the measurement of the specific surface area of a material. This theory allows the calculation of surface areas of materials in a very accurate manner and is thus capable of distinguishing differences between separate preparations of what would otherwise appear to be the same material. For example, activated carbon is a form of carbon that has been processed to make it extremely porous and thus to have a very large surface area. Activated carbon has been experimentally determined, using calculations derived from BET theory, to have a surface area of around 3000 m^2 g^−1.

[1] = test system: patients with end-stage renal disease (ESRD) on dialysis; test: Three-period trial of ferric citrate as phosphate binder: 52-week randomized, open-label, active control Safety Assessment Period; type: in vivo, human
Experimental: This trial was a three-period, multicenter, safety and efficacy clinical trial.
Patients were followed on their randomized assignment for safety assessments over 52 weeks.
Calcium acetate 667 mg capsules and sevelamer carbonate 800 mg tablets were used and were supplied by Keryx Biopharmaceuticals, Inc. (Keryx) for the duration of the trial.
Serum phosphorus and calcium were checked at Visit 5 (Week 1), and every two weeks during the first 12 weeks after Visit 4 (Randomization Visit), and monthly for the rest of the Safety Assessment Period. During the Efficacy Assessment Period, serum phosphorus and calcium were drawn weekly. These values guided study drug administration. While on study drug, the use of other phosphate binders was not permitted. […] The titration of calcium acetate and sevelamer carbonate throughout the 52-week Safety Assessment Period were according to the current package inserts for these agents and/or at the discretion of the site PI.
Patients took study drug orally with or within one hour of meals or snacks. […] The PI or designee at each site dispensed the study drug to the patient and instructed the patient on how to administer it. It was recognized that some patients required a different distribution in pills in a given day due to snacks or missed meals.
Serum phosphorus and calcium were performed at Screening (Visit 0); weekly during the Washout Period after Visit 1 (Week −2); at Visit 4 (Randomization Visit); at Visits 5 (Week 1), 6 (Week 2), 7 (Week 4), 8 (Week 6), 9 (Week 8), 10 (Week 10), 11 (Week 12), 12 (Week 16), 13 (Week 20), 14 (Week 24), 15 (Week 28), 16 (Week 32), 17 (Week 36), 18 (Week 40), 19 (Week 44), 20 (Week 48), and 21 (Week 52) of the 52-week Safety Assessment Period; and at Visits 22 (Week 53), 23 (Week 54), 24 (Week 55) and 25 (Week 56) of the Efficacy Assessment Period. […]
The efficacy analyses were based on Full Analysis (FA) population that consisted of all patients who took at least one dose of study medication and provided baseline and at least one post-baseline efficacy assessment. The safety analyses were based on safety population that was consistent of all patients who took at least one dose of study medication.
There were two unique and distinct baseline assessments. The baseline for the Safety Assessment Period was the Randomization Visit (Visit 4) and was defined as “Week-0-baseline.” The baseline for the Efficacy Assessment Period was the last visit of the Safety Assessment Period (Visit 21. Week 52) and was defined as “study-baseline.”

[2] = Week 12, ANCOVA, Day-0 baseline covariate

ferric citrate [Batch No. 35102]
BET Active Surface Area (BET active surface area): 30.6 m^2/g

ferric citrate [Batch No. 35103]
BET Active Surface Area (BET active surface area): 29.1 m^2/g

ferric citrate [Batch No. 35105]
BET Active Surface Area (BET active surface area): 31.5 m^2/g

ferric citrate [Batch No. 35106]
BET Active Surface Area (BET active surface area): 28.5 m^2/g

ferric citrate [RFS-12-1]
BET Active Surface Area (BET active surface area): 0.61 m^2/g
BET Active Surface Area (BET active surface area; Table 1, unit not given): 0.61

ferric citrate [STM-134-1]
BET Active Surface Area (BET active surface area; Table 1, unit not given): 16.17

ferric citrate [STM-182-1]
BET Active Surface Area (BET active surface area; Table 1, unit not given): 19.85

sevelamer carbonate
Calcium, Mean (SD) ([1]; Baseline): 9.056 (0.7291) MG/DL
Calcium, Median ([1]; Baseline): 9.150 mg/dL
Product Of Calcium And Phosphorus, Mean (SD) ([1]; Baseline): 68.0872 (16.29)
Product Of Calcium And Phosphorus, Median ([1]; Baseline): 66.2700
Phosphorus, Mean (SD) ([1]; Baseline (Table 12)): 7.51 (1.633) MG/DL
Phosphorus, Median ([1]; Baseline (Table 12)): 7.40 mg/dL
Calcium, Change from Baseline, Mean (SD) ([1]; Week 12): 0.175 (0.7509) MG/DL
Calcium, Change from Baseline, Median ([1]; Week 12): 0.100 mg/dL
Calcium, Mean (SD) ([1]; Week 12): 9.231 (0.7210) MG/DL
Calcium, Median ([1]; Week 12): 9.400 mg/dL
Product Of Calcium And Phosphorus, Change from Baseline, Mean (SD) ([1]; Week 12): −20.0621 (19.17)
Product Of Calcium And Phosphorus, Change from Baseline, Median ([1]; Week 12): −19.8500
Product Of Calcium And Phosphorus, Mean (SD) ([1]; Week 12): 48.0251 (14.37)
Product Of Calcium And Phosphorus, Median ([1]; Week 12): 46.2800
Phosphorus, Change from Baseline, Mean (SD) ([1]; Week 12 (Table 12)): −2.28 (2.169) MG/DL
Phosphorus, Change from Baseline, Median ([1]; Week 12 (Table 12)): -2.45 mg/dL
Phosphorus, Mean (SD) ([1]; Week 12 (Table 12)): 5.23 (1.713) MG/DL
Phosphorus, Median ([1]; Week 12 (Table 12)): 5.00 mg/dL
Calcium, LS Mean (SE) [1, 2]: 9.15 (0.08) MG/DL
Product Of Calcium And Phosphorus, LS Mean (SE) [1, 2]: 47.52 (1.50)
Phosphorus, LS Mean (SE) ([1]; Week 12, ANCOVA, Day-0 baseline covariate (Table 12)): 5.22 (0.17) MG/DL
